Test results: patent US20220175637A1, “COMPOSITION COTAINING ULTRAVIOLET WAVELENGTH-CONVERTING SUBSTANCE AND HYDROPHOBIZED SILICA AND/OR HYDROPHOBIZED STARCH” (Shiseido Company, Ltd., priority 2019, published 2022)

Columns and labels:
Human dermal fibroblasts [1] = experiment: Restoration of cell activity decreased by UV irradiation (AlamarBlue); type: cell-based; conditions: FIG. 5
Description: (§1) 1. Human dermal fibroblasts and human skin keratinocytes purchased from Kurabo Industries Ltd. were used. A cell suspension (1 mL) stored in liquid nitrogen was thawed in a water bath (37° C.) to an extent that small ice pellets remained, and then diluted with 9 mL of warm medium. 2. The diluted suspension was mixed gently and then transferred to a T75 flask and incubated overnight at 37° C. 3. The next day, the medium was replaced with 10 mL of fresh medium. 4. The medium was replaced periodically (once every 2 days for fibroblasts and once every 2 to 3 days for keratinocytes) and cell proliferation was continued. Meanwhile, the cells were observed using a microscope, and it was confirmed that the cells grew in the correct form. 5. After the cells reached about 80% confluence, the cells were passaged. The cells were passaged by washing the cells once with 10 mL of warm PBS, adding 5 mL of warm trypsin to a T75 flask, covering the bottom of the flask with a trypsin solution, followed by aspirating at room temperature for 1 minute. 6. The flask was allowed to stand in an oven at 37° C. for (maximum) 2 minutes for fibroblasts and (maximum) 7 minutes for keratinocytes. The cells were observed using a microscope and confirmed to be small and oval. 7. Thereafter, the side of the T75 flask was lightly tapped to release the cells. […]

Human dermal fibroblasts [2] = experiment: Cell activity (AlamarBlue) of cells irradiated with UV through a solution of the UV wavelength conversion substance; type: cell-based; conditions: UV 0 to 100 mJ/cm^2, FIG. 3
Description: The UV wavelength conversion substances (3) and (4) were dispersed in alcohol to prepare 5% and 10% dispersions.
as §1, with “7.” for “7. Thereafter, the side of the T75 flask was lightly tapped to release the cells.”

Substance: C-phycocyanin
- cell activity recovery effect, comparison of concentrations (Human dermal fibroblasts [1]; 0.4% versus 2% solution): equivalent at concentrations of 0.4% and 2%
- cell activity of cells having activity temporarily reduced (relative fluorescence intensity) (Human dermal fibroblasts [1]; pre-irradiation 400 mJ/cm^2 without substance, then UV 0 to 200 mJ/cm^2 through 0.4% or 2% solution): cell activity was recovered
- cell activity at UV irradiation (relative fluorescence intensity) (Human dermal fibroblasts [2]; 0.4% C-phycocyanin solution): the decrease in cell activity was suppressed
- cell activity at UV irradiation (relative fluorescence intensity) (Human dermal fibroblasts [2]; 2% C-phycocyanin solution, compared to no UV irradiation): the cell activity was even increased
